Patent US6469055B2, “Compositions and methods for treatment of neurological disorders and neurodegenerative diseases” (Massachusetts Institute of Technology, priority 1996, dated 2002)
“Also recorded” adds a separate entry of the source.

Columns and labels:
[1] = test system: APP holoprotein; experiment: Cell-associated APP (APP holoprotein), Western blot, cultured cortical astrocytes; conditions: DFU or DFP 10^-9-10^-3 M, 1 h, cultured astrocytes
Description: Astrocytes are isolated from cortices from postnatal rats. […] In brief, dissected cortices were dissociated by trypsinization and trituration through a flame-polished Pasteur pipette. Cells were plated onto poly-L-lysine coated 35- or 100 mm culture dishes at densities of about 10-25 cells/mm^2. […] Media are changed twice weekly. […] Pharmacological manipulations are performed in serum-free media on 7-14 DIV confluent astrocytes.
To detect cell-associated protein (APP or GFAP), astrocytes from 35 mm dishes are scraped in lysis buffer (60 mM Tris/HCl, 4% SDS, 20% glycerol, 1 mM dithiothreitol), ultrasonicated and boiled for 5 min. The total amount of cell protein per dish, estimated using the bicinchoninic acid assay, is not altered by pharmacological treatments. Bromphenol blue (0.1%) is added to each sample and equal amounts of protein (˜75 mg/lane) are loaded on 10% SDS-polyacrylamide gels.
The amount of media or cell protein loaded for sodium dodecyl sulfate-polyacrylamide gel electrophoresis (10-20% SDS PAGE; Bio-Rad) was normalized for the amount of protein per sample. […] After 2×10 min rinses in TBST, the membranes were incubated in TBST containing an appropriate antibody. Monoclonal antibodies 22C11 and GFAP (both from Boehringer-Mannheim) were used to detect the N-terminus of APP and glial fibrillary acidic protein respectively; antisera R37 and R98 (gifts of Dr. F. Kametani, Tokyo Institute of Psychiatry) were used to detected the C-terminus and KPI motifs of APP respectively; antiserum C8 (gift of Dr. D. Selkoe, Women's Hospital, Harvard Medical School, Cambridge, Mass.) was used to detect the C-terminus of APP.
After an overnight incubation, membranes were rinsed in TBST before being treated for 1h with a peroxidase-linked secondary antibody. After several rinses in TBST, protein bands were visualized on Kodak X-AR films by an enhanced chemiluminescence method (Amersham). Optical densities of the protein bands were quantitated by laser scanning densitometry (LKB, Bromma, Sweden), and normalized to the densities of those bands generated under control conditions.

[2] = test system: secreted APP (APPs); experiment: APPs secretion into the media of cultured cortical astrocytes, Western blot; assay type: cell-based, rat; conditions: DFU or DFP 10^-9-10^-3 M, 1 h, cultured astrocytes
Description: Astrocytes are isolated from cortices from postnatal rats. […] Media are changed twice weekly.
To detect secreted APP, culture media was collected after drug treatments and phenylmethylsulfonyl fluoride was added to a final concentration of 2 mM. The media samples were then applied to Sephadex PD-10 desalting columns (Pharmacia) and eluted with distilled water. Column eluates were frozen and dried by vacuum centrifugation. The lyophilized proteins were reconstituted in 25 μL water followed by 25 μL of 2X Laemmli gel loading buffer, and boiled for 5 min.
Assays of PI hydrolysis are conducted as previously reported. Also, measurements of APPs are conducted as previously reported.

[3] = test system: secreted APP (APPs); experiment: APPs secretion from cultured neurons; assay type: cell-based; conditions: DFP
Excerpt: (§1) Treatment of cultured astroyctes with DFU (A) or of cultured neurons with DFP (B) promotes APPs secretion and decreases the levels of amyloidogenic APP holoprotein in cultured.

[4] = test system: APP holoprotein; experiment: APP holoprotein in cultured neurons; assay type: cell-based; conditions: DFP
Excerpt: as §1

[5] = test system: serotonin release; experiment: Serotonin release in the striatum by microdialysis; assay type: in vivo, rat; conditions: rats, chronic treatment with PCA
[6] = test system: APP holoprotein; experiment: Brain APP holoprotein in rats injected with p-chloroamphetamine (PCA) with or without aspirin; assay type: in vivo, rat; conditions: rats injected with PCA; striatum or hippocampus
Excerpt: Neuronal injury can stimulate prostaglandin production., and thereby stimulate APP overexpression. We injected rats with para-chloroamphetamine (PCA), a neurotoxin which causes a loss of serotoninergic terminals in the brain.

[7] = test system: APP mRNA; conditions: dibutyryl cAMP in serum-containing medium, rat glioma cells; cited from earlier work
[8] = 100-150 mg indomethacin, 6 months, mild or moderately impaired Alzheimer's disease patients; cited from earlier work

**Q.** Which “levels of cellular APP holoprotein” value [1] does the source give for `CC(C)OC1=C(c2ccc(S(C)(=O)=O)cc2)C(C)(C)OC1=O` [DFP, 5,5-dimethyl-3-isopropyloxy-4-(4′-methylsulfonylphenyl)-2(5H)-furanone] here?
**A.** decreases

**Q.** And the “secretion of soluble APPs” value [2]?
**A.** increases

**Q.** What about the APPs secretion [3] of the same compound?
**A.** promotes

**Q.** What about the “levels of amyloidogenic APP holoprotein” value [4] of the same compound?
**A.** decreases

**Q.** Which “serotonin release in the striatum” value [5] does the source give for `CC(N)Cc1ccc(Cl)cc1` (stereo not drawn) [PCA, para-chloroamphetamine] here?
**A.** compromised

**Q.** And the “KPI-containing APP isoforms in brain tissue” value [6]?
**A.** increased

**Q.** And the “brain APP holoprotein levels” value [6]?
**A.** increased; also recorded: significant increases

**Q.** Which “APP mRNA” value [7] does the source give for `CCCC(=O)Nc1ncnc2c1ncn2[C@@H]1O[C@@H]2COP(=O)(O)O[C@H]2[C@H]1OC(=O)CCC` [dibutyryl cAMP] here?
**A.** increased

**Q.** For `COc1ccc2c(c1)c(CC(=O)O)c(C)n2C(=O)c1ccc(Cl)cc1` [indomethacin], which “cognitive decline versus placebo, battery of cognitive tests” value [8] is on record?
**A.** appeared to protect
